Assay results as given in ChEMBL document CHEMBL3868595, “Plazomicin is effective in a non-human primate pneumonic plague model” (Bioorg Med Chem, 2016).

What was measured:
Yersinia pestis [1] = assay: (§1) Antibacterial activity against Yersinia pestis Colorado 92 infected in African green monkey B6672 model assessed as bacterial burden in lung at 12.5 mg/kg, iv administered within 6 hrs post onset of sustained fever as 30 mins infusion for 5 days (reference value: 7.7 10^8CFU/g); format: functional, CO92
Yersinia pestis [2] = assay: Antibacterial activity against Yersinia pestis Colorado 92 infected in African green monkey 8047 model assessed as bacterial burden in heart at 6.25 mg/kg, iv administered within 6 hrs post onset of sustained fever as 30 mins infusion for 10 days (reference value: 2.6 10^7CFU/g); format: functional, CO92
African green monkey [3] = assay: Toxicity in African green monkey B6291 model infected with Yersinia pestis Colorado 92 assessed as serum gamma glutamyl-transferase level at 25 mg/kg, iv administered within 6 hrs post onset of sustained fever as 30 mins infusion for 10 days (reference value: 77 IU/L); format: organism-based; conditions: chlorocebus sabaeus, in vivo
African green monkey [4] = assay: Toxicity in African green monkey B5994 model infected with Yersinia pestis Colorado 92 assessed as serum lactate dehydrogenase level at 25 mg/kg, iv administered within 6 hrs post onset of sustained fever as 30 mins infusion for 10 days (reference value: 364 IU/L); format: organism-based; conditions: chlorocebus sabaeus, in vivo
Yersinia pestis [5] = assay: as §1, with “B6889” for “B6672”, “tracheobronchial lymph nodes” for “lung”, “6.25” for “12.5”, “10^9CFU/g)” for “10^8CFU/g)”; format: functional, CO92, Lymph node
African green monkey [6] = assay: Toxicity in African green monkey 8067 model infected with Yersinia pestis Colorado 92 assessed as serum creatinine level at 25 mg/kg, iv administered within 6 hrs post onset of sustained fever as 30 mins infusion for 10 days (reference value: 0.8 mg/dl); format: organism-based; conditions: chlorocebus sabaeus, in vivo
[7] = Toxicity in African green monkey 7972 model infected with Yersinia pestis Colorado 92 assessed as total white blood cell count at 25 mg/kg, iv administered within 6 hrs post onset of sustained fever as 30 mins infusion for 10 days (reference value: 6.9 10^3/microL); format: organism-based; conditions: chlorocebus aethiops, in vivo
Yersinia pestis [8] = assay: Antibacterial activity against Yersinia pestis Colorado 92 infected in African green monkey B6783 model assessed as bacterial burden in lung at 12.5 mg/kg, iv administered within 6 hrs post onset of sustained fever as 30 mins infusion for 5 days (reference value: 7.7 10^8CFU/g); format: functional, CO92
Yersinia pestis [9] = assay: Antibacterial activity against Yersinia pestis Colorado 92 infected in African green monkey C2149 model assessed as bacterial burden in liver at 6.25 mg/kg, iv administered within 6 hrs post onset of sustained fever as 30 mins infusion for 5 days (reference value: 5.2 10^8CFU/g); format: functional, CO92
Yersinia pestis [10] = assay: Antibacterial activity against Yersinia pestis Colorado 92 infected in African green monkey B6889 model assessed as bacterial burden in blood at 6.25 mg/kg, iv administered within 6 hrs post onset of sustained fever as 30 mins infusion for 5 days (reference value: 1.2 10^7CFU/ml); format: functional, CO92
[11] = Clearance in African green monkey blood at 25 mg/kg administered as iv infusion twice daily for 7 consecutive days measured on day 7 by LC-MS/MS analysis; format: ADME, organism-based; conditions: chlorocebus aethiops
African green monkey [12] = assay: Toxicity in African green monkey B6428 model infected with Yersinia pestis Colorado 92 assessed as serum creatinine level at 25 mg/kg, iv administered within 6 hrs post onset of sustained fever as 30 mins infusion for 10 days (reference value: 0.8 mg/dl); format: organism-based; conditions: chlorocebus sabaeus, in vivo
Yersinia pestis [13] = assay: Antibacterial activity against Yersinia pestis Colorado 92 infected in African green monkey B6988 model assessed as bacterial burden in blood at 6.25 mg/kg, iv administered within 6 hrs post onset of sustained fever as 30 mins infusion for 5 days (reference value: 1.2 10^7CFU/ml); format: functional, CO92
Yersinia pestis [14] = assay: Antibacterial activity against Yersinia pestis Colorado 92 infected in African green monkey C2149 model assessed as bacterial burden in heart at 6.25 mg/kg, iv administered within 6 hrs post onset of sustained fever as 30 mins infusion for 5 days (reference value: 2.6 10^7CFU/g); format: functional, CO92
Yersinia pestis [15] = assay: (§2) Antibacterial activity against Yersinia pestis Colorado 92 infected in African green monkey B6106 model assessed as bacterial burden in tracheobronchial lymph nodes at 25 mg/kg, iv administered within 6 hrs post onset of sustained fever as 30 mins infusion for 5 days (reference value: 7.7 10^9CFU/g); format: functional, organism-based; conditions: CO92, Lymph node
African green monkey [16] = assay: Toxicity in African green monkey assessed as effect on serum creatinine level at 25 mg/kg administered as iv infusion twice daily for 7 consecutive days measured on day 7 by LC-MS/MS analysis; format: organism-based; conditions: chlorocebus sabaeus, in vivo
Yersinia pestis [17] = assay: as §2, with “C2149” for “B6106”, “6.25” for “25”; format: functional, CO92, Lymph node
African green monkey [18] = assay: Toxicity in African green monkey 7337 model infected with Yersinia pestis Colorado 92 assessed as serum creatinine level at 25 mg/kg, iv administered within 6 hrs post onset of sustained fever as 30 mins infusion for 10 days (reference value: 0.7 mg/dl); format: organism-based; conditions: chlorocebus sabaeus, in vivo
African green monkey [19] = assay: Toxicity in African green monkey 7653 model infected with Yersinia pestis Colorado 92 assessed as serum gamma glutamyl-transferase level at 25 mg/kg, iv administered within 6 hrs post onset of sustained fever as 30 mins infusion for 10 days (reference value: 37 IU/L); format: organism-based; conditions: chlorocebus sabaeus, in vivo
Yersinia pestis [20] = assay: Antibacterial activity against Yersinia pestis Colorado 92 infected in African green monkey B6469 model assessed as bacterial burden in lung at 25 mg/kg, iv administered within 6 hrs post onset of sustained fever as 30 mins infusion for 5 days (reference value: 7.7 10^8CFU/g); format: functional, CO92
African green monkey [21] = assay: Toxicity in African green monkey B6127 model infected with Yersinia pestis Colorado 92 assessed as elevation of blood urea nitrogen at 25 mg/kg, iv administered within 6 hrs post onset of sustained fever as 30 mins infusion for 10 days; format: organism-based; conditions: chlorocebus sabaeus, in vivo
Yersinia pestis [22] = assay: Antibacterial activity against Yersinia pestis Colorado 92 infected in African green monkey B6872 model assessed as bacterial burden in brain at 25 mg/kg, iv administered within 6 hrs post onset of sustained fever as 30 mins infusion for 5 days (reference value: 1.9 10^6CFU/g); format: functional, CO92
Yersinia pestis [23] = assay: Antibacterial activity against Yersinia pestis Colorado 92 infected in African green monkey assessed as survival of monkey at 25 mg/kg, iv administered within 6 hrs post onset of sustained fever as 30 mins infusion for 5 days; format: functional; conditions: CO92, iv
Yersinia pestis [24] = assay: Antibacterial activity against Yersinia pestis Colorado 92 infected in African green monkey B6861 model assessed as bacterial burden in kidney at 6.25 mg/kg, iv administered within 6 hrs post onset of sustained fever as 30 mins infusion for 5 days (reference value: 7.1 10^7CFU/g); format: functional, CO92
Yersinia pestis [25] = assay: Antibacterial activity against Yersinia pestis Colorado 92 infected in African green monkey B6106 model assessed as bacterial burden in blood at 25 mg/kg, iv administered within 6 hrs post onset of sustained fever as 30 mins infusion for 5 days (reference value: 1.2 10^7CFU/ml); format: functional, CO92
African green monkey [26] = assay: Toxicity in African green monkey 7653 model infected with Yersinia pestis Colorado 92 assessed as serum creatinine level at 25 mg/kg, iv administered within 6 hrs post onset of sustained fever as 30 mins infusion for 10 days (reference value: 0.6 mg/dl); format: organism-based; conditions: chlorocebus sabaeus, in vivo

Q: Which Activity (Yersinia pestis [1]) does the source give for `CN[C@@H]1[C@@H](O)[C@@H](O[C@@H]2[C@@H](O)[C@H](O[C@H]3OC(CNCCO)=CC[C@H]3N)[C@@H](N)C[C@H]2NC(=O)[C@@H](O)CCN)OC[C@]1(C)O` [PLAZOMICIN] here?
A: 9.2 ×10⁹ CFU/g

Q: What about the Activity (Yersinia pestis [2]) of the same compound?
A: 2 ×10⁷ CFU/g

Q: What about the Activity (African green monkey [3]) of the same compound?
A: 102 IU/L

Q: And the Activity (African green monkey [4])?
A: 403 IU/L

Q: And the Activity (Yersinia pestis [5])?
A: 3.6 ×10⁹ CFU/g

Q: What about the Activity (African green monkey [6]) of the same compound?
A: 0.8 mg/dL

Q: What about the Activity [7] of the same compound?
A: 7.6 ×10³ /uL

Q: And the Activity (Yersinia pestis [8])?
A: 2.8 ×10⁹ CFU/g

Q: What about the Activity (Yersinia pestis [9]) of the same compound?
A: 1 ×10⁶ CFU/g

Q: What about the Activity (Yersinia pestis [10]) of the same compound?
A: 93 CFU/ml

Q: And the clearance [11]?
A: 1.83 mL/min/kg

Q: What about the Activity (African green monkey [12]) of the same compound?
A: 0.6 mg/dL

Q: What about the Activity (Yersinia pestis [13]) of the same compound?
A: 11 CFU/ml

Q: What about the Activity (Yersinia pestis [14]) of the same compound?
A: 9.7 ×10⁶ CFU/g

Q: And the Activity (Yersinia pestis [15])?
A: Below limit of detection

Q: And the Activity (African green monkey [16])?
A: 0.55 mg/dL

Q: And the Activity (Yersinia pestis [17])?
A: 1 ×10⁹ CFU/g

Q: What about the Activity (African green monkey [18]) of the same compound?
A: 0.5 mg/dL

Q: And the Activity (African green monkey [19])?
A: 27 IU/L

Q: What about the Activity (Yersinia pestis [20]) of the same compound?
A: 21 CFU/g

Q: What about the Activity (African green monkey [21]) of the same compound?
A: Toxic

Q: What about the Activity (Yersinia pestis [22]) of the same compound?
A: 4.1 ×10⁶ CFU/g

Q: And the survival at 25 mg/kg (Yersinia pestis [23])?
A: 69%

Q: What about the Activity (Yersinia pestis [24]) of the same compound?
A: 11 CFU/g

Q: And the Activity (Yersinia pestis [25])?
A: 40 CFU/ml

Q: What about the Activity (African green monkey [26]) of the same compound?
A: 0.8 mg/dL
